Source: ChEMBL document CHEMBL1150525, “Phosphate derivatives of d4T as inhibitors of HIV” (Bioorg Med Chem Lett, 1993)

Assays:
[1] = Toxic concentration against HIV-1 IIIB in C8166 T-cells; assay type: ADME, cell-based; settings: human, read-out: TC50 (the source's name)
[2] = test system: C8166; experiment: Ability to inhibit the replication of HIV-1 IIIB infected C8166 cells; assay type: functional, cell-based; settings: Homo sapiens

| EC50 [2] [µM] | Compound | CC50 [1] [µM] |
| --- | --- | --- |
| 20 | CCCOP(=O)(OCC1C=CC(n2cc(C)c(=O)[nH]c2=O)O1)OCC(Cl)(Cl)Cl (centres undefined) | 500 |
| > 200 | CCCOP(=O)(OCCC)OCC1C=CC(n2cc(C)c(=O)[nH]c2=O)O1 (centres undefined) | 200 |
| 0.2 | COC(=O)C(C)NP(=O)(OCC1C=CC(n2cc(C)c(=O)[nH]c2=O)O1)OCC(Cl)(Cl)Cl (centres undefined) | 500 |
| 0.4 | Cc1cn(C2C=CC(COP(=O)(OCC(Cl)(Cl)Cl)OCC(Cl)(Cl)Cl)O2)c(=O)[nH]c1=O (centres undefined) | 150 |
| 0.08 | Cc1cn([C@H]2C=C[C@@H](CO)O2)c(=O)[nH]c1=O [STAVUDINE] | 50 |

| Compound | EC50 [2] [µM] | CC50 [1] [µM] |
| --- | --- | --- |
| CCCOP(=O)(NC(C)C(=O)OC)OCC1C=CC(n2cc(C)c(=O)[nH]c2=O)O1 (centres undefined) | 200 | 250 |
| Cc1cn(C2C=CC(COP(=O)(OCC(F)(F)F)OCC(F)(F)F)O2)c(=O)[nH]c1=O (centres undefined) | 15 | 500 |
